A short description of series [1]: Particle size of mirdametinib drug substance lots (laser diffraction particle sizing). It counts as physicochemical. The settings on record: mirdametinib free base drug substance. An excerpt: As used herein, “D50” or “d50”, also known as the median diameter, corresponds to the value under which 50% of the particles has a lower volume diameter. “D90” or “d90” corresponds to the value under which 90% of the particles has a lower volume diameter. The particle size may be measured using wet standard laser diffraction particle sizing techniques known in the art. One example of an instrument to measure the particle size of the dry powders is the Mastersizer 3000, manufactured by Malvern Panalytical Ltd. (Malvern, UK). As particles are often non-spherical, it is difficult and complex to provide dimensional descriptions of these non-spherical particles. As used herein, “volume diameter” refers to diameter of a sphere with equal volume of the non-spherical particle.
(§1) Mirdametinib free base (Lots #1, 2, and 3) having the properties in the table below were prepared.

The nature of series [2]: Bulk and tap density, Carr's Index of drug substance lots. It counts as physicochemical. As to conditions: mirdametinib free base drug substance. As to the method: as §1

As to `O=C(NOC[C@H](O)CO)c1ccc(F)c(F)c1Nc1ccc(I)cc1F` [Lot 1, N—((R)-2,3-dihydroxypropoxy)-3,4-difluoro-2-(2-fluoro-4-iodo-phenylamino)benzamide], in series [1], the D10 is 4.9 μm, the D50 is on record as 20.9 μm and the D90 stood at 101.5 μm. Besides, in series [2], the Bulk density amounted to 0.169 g/mL, the “Carr's Index” value turned out to be 57.1 and the Tap density turned out to be 0.394 g/mL.
In the case of `O=C(NOC[C@H](O)CO)c1ccc(F)c(F)c1Nc1ccc(I)cc1F` [Lot 2, N—((R)-2,3-dihydroxypropoxy)-3,4-difluoro-2-(2-fluoro-4-iodo-phenylamino)benzamide], in series [1], the D10 is 7.6 μm, the D50 was 28.4 μm and the D90 is on record as 120.7 μm. Further, in series [2], the Bulk density is 0.197 g/mL, the “Carr's Index” value came to 54.6 and the Tap density is recorded as 0.434 g/mL.
In series [1], `O=C(NOC[C@H](O)CO)c1ccc(F)c(F)c1Nc1ccc(I)cc1F` [Lot 3, N—((R)-2,3-dihydroxypropoxy)-3,4-difluoro-2-(2-fluoro-4-iodo-phenylamino)benzamide] displayed a D10 of 17.8 μm, a D50 of 46.5 μm and a D90 of 217.1 μm.

Source of the values: US20240307326A1, “DOSAGE FORMS OF MIRDAMETINIB” (SpringWorks Therapeutics, Inc., priority 2023, published 2024).
